Source: article PMC12528448, “Resistance to CDK7 inhibitors directed by acquired mutation of a conserved residue in cancer cells” (The EMBO Journal, 2025)
Where “and” joins values, the source holds several entries; their conditions need not be identical. Equal entries are not always repeated.

Assays:
Type in all cases: cell-based, human
MCF7 cells = assay: IncuCyte confluency growth, MCF7
Description: (§1) To determine the IC50 of drug treatments on growth, cells were seeded in 96-well culture plates. Two days after seeding, the cells were treated with increasing concentrations of drugs and incubated for 4 days. Cell number was determined using the SRB assay (Skehan et al, [1990]), and IC50 values were calculated using non-linear regression curve fitting in GraphPad Prism v10. For all other growth experiments, cells were seeded into 96-well plates, and appropriate drugs were added 2 days after seeding. Cells were then incubated in an IncuCyte Zoom live-cell imager, with cell confluency measured every 6 h. Cell doubling times were determined by non-linear curve fitting (exponential growth equation) in GraphPad Prism v10.

[1] = test system: MCF7-CDK4^D99N (CL1) cells; assay: IncuCyte confluency growth, homozygous CDK4 D99N clone CL1
Description: as §1

[2] = test system: P-Ser807/811 RB1, RB1, CDK4, β-actin in MCF7 cells; assay: Immunoblotting after Palbociclib, MCF7; details: 48 h
Description: Whole-cell lysates were prepared in RIPA buffer (Sigma-Aldrich), supplemented with protease and phosphatase inhibitor cocktails (Roche). Protein sample concentrations were determined using the Pierce BCA Protein Assay kit (ThermoFisher Scientific). In all, 10–20 µg of total protein was loaded for each sample and resolved on 4–15% Mini-PROTEAN TGX Precast Protein Gels (BIO-RAD). Immunoblotting was performed as described (Patel et al, [2018]), using antibodies diluted 1:1000 for P-CDK2 (Thr160; 2561S), CDK2 (2546S), P-Rb (Ser807/811; 9308), Rb (9309), CDK7 (2916) and CDK12 (11973S), from Cell Signalling Technology. PolII CTD phosphorylation antibodies (P-Ser2 (ab5095) and P-Ser5 (ab5131), used at 1:10,000 dilution), as well as total PolII (ab817; 1:2000 dilution) and β-actin (ab6276; 1:100,000 dilution) were purchased from Abcam. CCNK antibody (Thermofisher A301-939A) was used at a 1:1000 dilution. Band intensities were quantified using ImageJ (Schneider et al, [2012]).

[3] = homozygous mutant clone, 1 µM Palbociclib

CC(=O)c1c(C)c2cnc(Nc3ccc(N4CCNCC4)cn3)nc2n(C2CCCC2)c1=O [Palbociclib]
% Conluency (MCF7 cells; MCF7, 50nM Palbociclib, 48 Hours): 21.09% and 17.14% and 31.73% | % Conluency (MCF7 cells; MCF7, 50nM Palbociclib, 60 Hours): 26.85% and 21.06% and 38.57% | % Conluency (MCF7 cells; MCF7, 50nM Palbociclib, 72 Hours): 33.08% and 25.69% and 49.56% | % Conluency (MCF7 cells; MCF7, 50nM Palbociclib, 84 Hours): 42.76% and 32.56% and 62.06% | % Conluency (MCF7 cells; MCF7, 50nM Palbociclib, 96 Hours): 53.46% and 40.59% and 75.59% | % Conluency (MCF7 cells; MCF7, 50nM Palbociclib, 120 Hours): 76.28% and 61.62% and 89.48% | % Conluency (MCF7 cells; MCF7, 50nM Palbociclib, 132 Hours): 87.22% and 71.34% and 95.67% | % Conluency (MCF7 cells; MCF7, 50nM Palbociclib, 144 Hours): 95.25% and 77.28% and 98.12% | % Conluency (MCF7 cells; MCF7, 100nM Palbociclib, 48 Hours): 20.67% and 15.77% and 27.22% | % Conluency (MCF7 cells; MCF7, 100nM Palbociclib, 60 Hours): 25.56% and 18.66% and 32.25% | % Conluency (MCF7 cells; MCF7, 100nM Palbociclib, 72 Hours): 32.06% and 22.38% and 39.17% | % Conluency (MCF7 cells; MCF7, 100nM Palbociclib, 84 Hours): 40.13% and 28.06% and 49.01% | % Conluency (MCF7 cells; MCF7, 100nM Palbociclib, 96 Hours): 50.09% and 33.82% and 60.83% | % Conluency (MCF7 cells; MCF7, 100nM Palbociclib, 120 Hours): 70.64% and 49.63% and 77.85% | % Conluency (MCF7 cells; MCF7, 100nM Palbociclib, 132 Hours): 77.85% and 58.56% and 85.38% | % Conluency (MCF7 cells; MCF7, 100nM Palbociclib, 144 Hours): 87.15% | % Conluency (MCF7 cells; MCF7, 500nM Palbociclib, 48 Hours): 17.33% and 13.43% and 25.36% | % Conluency (MCF7 cells; MCF7, 500nM Palbociclib, 60 Hours): 19.30% and 15.00% and 28.50% | % Conluency (MCF7 cells; MCF7, 500nM Palbociclib, 72 Hours): 22.35% and 16.89% and 33.09% | % Conluency (MCF7 cells; MCF7, 500nM Palbociclib, 120 Hours): 35.55% and 26.80% and 51.35% | % Conluency (MCF7 cells; MCF7, 500nM Palbociclib, 132 Hours): 36.87% and 29.33% and 55.68% | % Conluency (MCF7 cells; MCF7, 500nM Palbociclib, 144 Hours): 41.22% and 32.10% and 58.75% | % Conluency (MCF7 cells; MCF7, 1000nM Palbociclib, 48 Hours): 16.59% and 13.44% and 21.86% | % Conluency (MCF7 cells; MCF7, 1000nM Palbociclib, 60 Hours): 18.56% and 14.52% and 24.10% | % Conluency (MCF7 cells; MCF7, 1000nM Palbociclib, 72 Hours): 20.73% and 16.23% and 26.86% | % Conluency (MCF7 cells; MCF7, 1000nM Palbociclib, 84 Hours): 23.01% and 18.11% and 30.06% | % Conluency (MCF7 cells; MCF7, 1000nM Palbociclib, 96 Hours): 25.25% and 20.25% and 34.64% | % Conluency (MCF7 cells; MCF7, 1000nM Palbociclib, 120 Hours): 30.07% and 24.29% and 38.56% | % Conluency (MCF7 cells; MCF7, 1000nM Palbociclib, 132 Hours): 30.94% and 26.42% and 40.12% | % Conluency (MCF7 cells; MCF7, 1000nM Palbociclib, 144 Hours): 33.62% and 26.11% and 42.54% | Doubling time (MCF7 cells; MCF7, 1 µM Palbociclib): 138.9 (95% CI = 96.8–238.0) h | Increase of doubling time vs vehicle (MCF7 cells; MCF7, 1 µM Palbociclib): fivefold | Confluency (MCF7 cells; MCF7, 1 µM Palbociclib, at 250 h): 50% | Growth inhibition (MCF7 cells; MCF7, IncuCyte): growth inhibited by Palbociclib in a dose-dependent manner | % Confluency ([1]; MCF7 CDK4 D99N/D99N CL1, 50nM Palbociclib, 0 Hours): 4.47% and 7.41% and 8.54% | % Confluency ([1]; MCF7 CDK4 D99N/D99N CL1, 50nM Palbociclib, 12 Hours): 6.57% and 10.81% and 12.65% | % Confluency ([1]; MCF7 CDK4 D99N/D99N CL1, 50nM Palbociclib, 24 Hours): 7.94% and 14.04% and 16.28% | % Confluency ([1]; MCF7 CDK4 D99N/D99N CL1, 50nM Palbociclib, 36 Hours): 9.96% and 16.26% and 19.65% | % Confluency ([1]; MCF7 CDK4 D99N/D99N CL1, 50nM Palbociclib, 60 Hours): 16.05% and 25.67% and 31.53% | % Confluency ([1]; MCF7 CDK4 D99N/D99N CL1, 50nM Palbociclib, 72 Hours): 20.59% and 33.83% and 40.66% | % Confluency ([1]; MCF7 CDK4 D99N/D99N CL1, 100nM Palbociclib, 0 Hours): 5.11% and 7.96% and 8.92% | % Confluency ([1]; MCF7 CDK4 D99N/D99N CL1, 100nM Palbociclib, 12 Hours): 7.75% and 11.79% and 13.54% | % Confluency ([1]; MCF7 CDK4 D99N/D99N CL1, 100nM Palbociclib, 24 Hours): 9.54% and 15.28% and 17.18% | % Confluency ([1]; MCF7 CDK4 D99N/D99N CL1, 100nM Palbociclib, 36 Hours): 11.96% and 17.72% and 19.72% | % Confluency ([1]; MCF7 CDK4 D99N/D99N CL1, 100nM Palbociclib, 48 Hours): 15.88% and 21.63% and 24.14% | % Confluency ([1]; MCF7 CDK4 D99N/D99N CL1, 100nM Palbociclib, 60 Hours): 19.72% and 27.06% and 29.56% | % Confluency ([1]; MCF7 CDK4 D99N/D99N CL1, 100nM Palbociclib, 72 Hours): 25.72% and 33.76% and 37.42% | % Confluency ([1]; MCF7 CDK4 D99N/D99N CL1, 100nM Palbociclib, 84 Hours): 33.55% and 43.80% and 49.43% | % Confluency ([1]; MCF7 CDK4 D99N/D99N CL1, 100nM Palbociclib, 96 Hours): 44.26% and 56.08% and 62.73% | % Confluency ([1]; MCF7 CDK4 D99N/D99N CL1, 500nM Palbociclib, 0 Hours): 4.28% and 7.96% and 8.62% | % Confluency ([1]; MCF7 CDK4 D99N/D99N CL1, 500nM Palbociclib, 12 Hours): 6.49% and 11.80% and 13.50% | % Confluency ([1]; MCF7 CDK4 D99N/D99N CL1, 500nM Palbociclib, 24 Hours): 8.63% and 14.98% and 17.24% | % Confluency ([1]; MCF7 CDK4 D99N/D99N CL1, 500nM Palbociclib, 36 Hours): 10.70% and 16.67% and 18.25% | % Confluency ([1]; MCF7 CDK4 D99N/D99N CL1, 500nM Palbociclib, 48 Hours): 13.35% and 19.15% and 19.83% | % Confluency ([1]; MCF7 CDK4 D99N/D99N CL1, 500nM Palbociclib, 60 Hours): 17.13% and 22.40% and 23.57% | % Confluency ([1]; MCF7 CDK4 D99N/D99N CL1, 500nM Palbociclib, 72 Hours): 21.34% and 27.28% and 27.86% | % Confluency ([1]; MCF7 CDK4 D99N/D99N CL1, 500nM Palbociclib, 84 Hours): 27.05% and 33.32% and 34.40% | % Confluency ([1]; MCF7 CDK4 D99N/D99N CL1, 500nM Palbociclib, 96 Hours): 34.72% and 41.63% and 42.47% | % Confluency ([1]; MCF7 CDK4 D99N/D99N CL1, 500nM Palbociclib, […] Hours): 39.86% | % Confluency ([1]; MCF7 CDK4 D99N/D99N CL1, 1000nM Palbociclib, 0 Hours): 4.23% and 6.28% and 8.65% | % Confluency ([1]; MCF7 CDK4 D99N/D99N CL1, 1000nM Palbociclib, 12 Hours): 6.49% and 9.38% and 13.38% | % Confluency ([1]; MCF7 CDK4 D99N/D99N CL1, 1000nM Palbociclib, 24 Hours): 8.61% and 12.05% and 16.81% | % Confluency ([1]; MCF7 CDK4 D99N/D99N CL1, 1000nM Palbociclib, 36 Hours): 10.75% and 13.98% and 18.02% | % Confluency ([1]; MCF7 CDK4 D99N/D99N CL1, 1000nM Palbociclib, 48 Hours): 13.71% and 15.18% and 19.26% | % Confluency ([1]; MCF7 CDK4 D99N/D99N CL1, 1000nM Palbociclib, 60 Hours): 17.11% and 17.23% and 21.83% | % Confluency ([1]; MCF7 CDK4 D99N/D99N CL1, 1000nM Palbociclib, 72 Hours): 21.46% and 20.52% and 24.80% | % Confluency ([1]; MCF7 CDK4 D99N/D99N CL1, 1000nM Palbociclib, 84 Hours): 26.42% and 23.91% and 29.84% | % Confluency ([1]; MCF7 CDK4 D99N/D99N CL1, 1000nM Palbociclib, 96 Hours): 33.28% and 29.04% and 35.27% | Sensitivity of growth ([1]; homozygous mutant clone vs MCF7): substantially less sensitive | Doubling time [1, 3]: 54.6 (95% CI = 48.4–62.1) h | Increase of doubling time vs vehicle [1, 3]: twofold | RB1 phosphorylation [2]: significantly and dose-dependently reduced
